Assay: T3 promoter assay cell test (luciferase reporter under a thyroid hormone-regulated promoter)
Format: cell-based
Conditions: Homo sapiens; HepG2 luciferase reporter; costimulator retinolic acid; incubation 48 or 72 hours; four replicates
Description: The efficacy of the compounds according to the invention can be tested, for example, in vitro by the T3 promoter assay cell test described below:
The test is carried out using a stably transfected, human HepG2 hepatocarcinoma cell which expresses a luciferase gene under the control of a thyroid hormone-regulated promoter. The vector used for the transfection carries a minimal thymidine kinase promoter ahead of the luciferase gene having a thyroid hormone-responsive element (TRE) which consists of two inverted palindromes of 12 bp each and one 8 bp spacer.
For the test, the cell cultures are inoculated into 96 well plates in Eagle's Minimal Essential Medium with the following additives: glutamine, tricine [N-(tris-(hydroxymethyl)-methyl)-glycine], sodium pyruvate, non-essential amino acids (L-Ala, L-Asn, L-Asp, L-Pro, L-Ser, L-Glu, Gly), insulin, selenium and transferrin. The cultures are grown at 37° C. and under a 10% CO2 atmosphere for 48 hours. Serial dilutions of test substance or reference compound (T3, T4) and costimulator retinolic acid are then added to the test cultures and these are incubated for a further 48 or 72 hours as beforehand. Each substance concentration is tested in four replicates. For the determination of the luciferase induced by T3 or other substances, the cells are then lysed by addition of a Triton- and […] buffer (Promega) and immediately measured luminometrically. The EC50 values of each compound are calculated.

EC50 | Structure (SMILES)
13 nM | CCCCCc1n[nH]c2ccc(Oc3c(C)cc(NC(=O)C(=O)O)cc3C)cc12 [Example 11a, ({3,5-dimethyl-4-[(3-pentyl-1H-indazol-5-yl)oxy]phenyl}amino)(oxo)acetic acid]
190 nM | CCOC(=O)C(=O)Nc1cc(C)c(Oc2ccc3[nH]nc(C(C)C)c3c2)c(C)c1 [Example 9, Ethyl ({3,5-dimethyl-4-[(3-isopropyl-1H-indazol-5-yl)oxy]phenyl}amino)(oxo)-acetate]
10 nM | CCCCCc1n[nH]c2ccc(Oc3c(C)cc(NC(=O)C(=O)OCC)cc3C)cc12 [Example 11, Ethyl ({3,5-dimethyl-4-[(3-pentyl-1H-indazol-5-yl)oxy]phenyl}amino)(oxo)acetate]
115 nM | CCCc1n[nH]c2ccc(Oc3c(C)cc(N)cc3C)cc12 [Example 4, 5-(4-Amino-2,6-dimethylphenoxy)-3-propyl-1H-indazole]
18 nM | CCCCCc1n[nH]c2ccc(Oc3c(C)cc(NC(=O)CC(=O)OC)cc3C)cc12 [Example 18, Methyl-({3,5-dimethyl-4-[(3-pentyl-1H-indazol-5-yl)oxy]phenyl}amino)-3-(oxo)-propionate]
10 nM | CCCCCc1n[nH]c2ccc(Oc3c(C)cc(NCC(=O)OCC)cc3C)cc12 [Example 16, Ethyl ({3,5-dimethyl-4-[(3-pentyl-1H-indazol-5-yl)oxy]phenyl}amino)acetate]

— patent US6608049B2, “Indazoles” (Bayer Aktiengesellschaft, priority 2000, dated 2003)
